The source of these data is patent US20100280010A1, “CHEMICAL COMPOUNDS” (priority 2006, published 2010).

Some results are limits rather than exact numbers.

The subject of the assay is HIV-1 (Ba-L or IIIB) infection of HOS cell line (expressing hCXCR4/hCCR5/hCD4/pHIV-LTR-luciferase). Description: HOS HIV-1 Infectivity Assay. The assay is classed as cell-based. As to conditions: Human immunodeficiency virus 1, HOS, virus strain not given, read-out: Activity Level. How it is done:
Compounds were profiled against two HIV-1 viruses, the M-tropic (CCR5 utilizing) Ba-L strain and the T-tropic (CXCR4 utilizing) IIIB strain. Ba-L was propagated in either peripheral blood lymphocytes or SupT1/CCR5+/CXCR4+ cells. IIIB was propagated in peripheral blood lymphocytes. Compounds were tested for their ability to block infection of the HOS cell line (expressing hCXCR4/hCCR5/hCD4/pHIV-LTR-luciferase) by either HIV-1 Ba-L or HIV-1 IIIB. Compound cytotoxicity was also examined in the absence of virus addition.
HOS cells (expressing hCXCR4/hCCR5/hCD4/pHIV-LTR-luciferase) were harvested and diluted in Dulbeccos modified Eagles media supplemented with 2% FCS to a concentration of 120,000 cells/ml. The cells were plated into 96-well plates (50 μl per well) and the plates were placed in a tissue culture incubator ([…]; 5% CO2195% air) for a period of 24 h.
Subsequently, 50 μl of the desired drug solution (2 times the final concentration) was added to each well and the plates were returned to the tissue culture incubator (370° C.; 5% CO2/95% air) for 1 h. Following this incubation, 60 μl of diluted virus (4 times the final concentration) was added to 60 μl of 2× the final desired concentration of the compound and 100 μl of this compound/virus mix was added to each well (approximately 2 million RLU per well of virus). The plates were returned to the tissue culture incubator (370° C.; 5% CO2/95% air) and were incubated for a further 96 h.
Following this incubation the endpoint for the virally infected cultures was quantified following addition of Steady-Glo Luciferase assay system reagent (Promega, Madison, Wis.). Cell viability or non-infected cultures was measured using a CellTiter-Glo luminescent cell viability assay system (Promega, Madison, Wis.). All luminescent readouts are performed on a Topcount luminescence detector (Packard, Meridien, Conn.).
Consider `CCN(Cc1nc2cccc(N3CCC(N(C)C)CC3)n2c1C#N)[C@H]1CCCc2cccnc21` [Example 62, 5-[4-(dimethylamino)-1-piperidinyl]-2-({ethyl[(8S)-5,6,7,8-tetrahydro-8-quinolinyl]amino}methyl)imidazo[1,2-a]pyridine-3-carbonitrile], for which the IC50 was below 100 nM.
The figure for `CN1CCN(c2cccc3nc(CN(C)[C@H]4CCCc5cccnc54)c(C(N)=O)n23)CC1` [Example 18, 5-(4-Methyl-1-piperazinyl)-2-({methyl[(8S)-5,6,7,8-tetrahydro-8-quinolinyl]amino}methyl)imidazo[1,2-a]pyridine-3-carboxamide] is below 100 nM; for `CN1CCN(c2cccc3nc(CN(CC4CC4)[C@H]4CCCc5cccnc54)c(C#N)n23)CC1` [Example 33, 2-({(Cyclopropylmethyl)[(8S)-5,6,7,8-tetrahydro-8-quinolinyl]amino}methyl)-5-(4-methyl-1-piperazinyl)imidazo[1,2-a]pyridine-3-carbonitrile] it is below 100 nM; for `CCCN(Cc1nc2cccc(N3CCN(C)CC3)n2c1C#N)[C@H]1CCCc2cccnc21` [Example 25, 5-(4-Methyl-1-piperazinyl)-2-({propyl[(8S)-5,6,7,8-tetrahydro-8-quinolinyl]amino}methyl)imidazo[1,2-a]pyridine-3-carbonitrile] it is below 100 nM.
Take `CN(C)C1CCN(c2cccc3nc(CN(C)[C@H]4CCCc5cccnc54)c(C(N)=O)n23)CC1` [Example 59]: the IC50 is below 100 nM.
The figure for `CN(C)CCN(C)c1cccc2nc(CN(C)[C@H]3CCCc4cccnc43)c(Cl)n12` [Example 77, N-[3-Chloro-2-({methyl[(8S)-5,6,7,8-tetrahydro-8-quinolinyl]amino}methyl)imidazo[1,2-a]pyridin-5-yl]-N,N′,N′-trimethyl-1,2-ethanediamine] is below 100 nM.
As for `CN(C)[C@@H]1CCN(c2cccc3nc(CN(Cc4ccccc4)[C@H]4CCCc5cccnc54)c(C#N)n23)C1` [Example 53, 5-[(3R)-3-(Dimethylamino)-1-pyrrolidinyl]-2-({(phenylmethyl)[(8S)-5,6,7,8-tetrahydro-8-quinolinyl]amino}methyl)imidazo[1,2-a]pyridine-3-carbonitrile], the figure is below 100 nM; as for `CCN(Cc1nc2cccc(N3CCC(N(C)C)CC3)n2c1C(N)=O)[C@H]1CCCc2cccnc21` [Example 63, 5-[4-(dimethylamino)-1-piperidinyl]-2-({ethyl[(8S)-5,6,7,8-tetrahydro-8-quinolinyl]amino}methyl)imidazo[1,2-a]pyridine-3-carboxamide], below 100 nM.
As for `CCCN(Cc1nc2cccc(N3CC[C@@H](N(C)C)C3)n2c1Cl)[C@H]1CCCc2cccnc21` [Example 86, (8S)—N-({3-Chloro-5-[(3R)-3-(dimethylamino)-1-pyrrolidinyl]imidazo[1,2-a]pyridin-2-yl}methyl)-N-propyl-5,6,7,8-tetrahydro-8-quinolinamine], the figure is below 100 nM; as for `CN(C)C1CCN(c2cccc3nc(CN(C)[C@H]4CCCc5cccnc54)c(C#N)n23)CC1` [Example 58, 5-[4-(dimethylamino)-1-piperidinyl]-2-({methyl[(8S)-5,6,7,8-tetrahydro-8-quinolinyl]amino}methyl)imidazo[1,2-a]pyridine-3-carbonitrile], below 100 nM.
Regarding `CCCN(Cc1nc2cccc(N3CC[C@@H](N(C)C)C3)n2c1C#N)[C@H]1CCCc2cccnc21` [Example 46, 5-[(3R)-3-(Dimethylamino)-1-pyrrolidinyl]-2-({propyl[(8S)-5,6,7,8-tetrahydro-8-quinolinyl]amino}methyl)imidazo[1,2-a]pyridine-3-carbonitrile], the IC50 was below 100 nM.
As for `CC(C)N(Cc1nc2cccc(N3CCN(C)CC3)n2c1C#N)[C@H]1CCCc2cccnc21` [Example 29, 2-({(1-Methylethyl)[(8S)-5,6,7,8-tetrahydro-8-quinolinyl]amino}methyl)-5-(4-methyl-1-piperazinyl)imidazo[1,2-a]pyridine-3-carbonitrile], the IC50 was below 100 nM.
As for `C[C@H]1CN(c2cccc3nc(CN(C)[C@H]4CCCc5cccnc54)c(Cl)n23)CCN1` [Example 78, (8S)—N-({3-Chloro-5-[(3S)-3-methyl-1-piperazinyl]imidazo[1,2-a]pyridin-2-yl}methyl)-N-methyl-5,6,7,8-tetrahydro-8-quinolinamine], the figure is below 100 nM; as for `CCCN(Cc1nc2cccc(N3CCC(N(C)C)CC3)n2c1Cl)[C@H]1CCCc2cccnc21` [Example 87, (8S)—N-({3-Chloro-5-[4-(dimethylamino)-1-piperidinyl]imidazo[1,2-a]pyridin-2-yl}methyl)-N-propyl-5,6,7,8-tetrahydro-8-quinolinamine], below 100 nM.
As to `CN(C)C1CCN(c2cccc3nc(CN(C)[C@H]4CCCc5cccnc54)c(Cl)n23)CC1` [Example 75, (8S)—N-({3-Chloro-5-[4-(dimethylamino)-1-piperidinyl]imidazo[1,2-a]pyridin-2-yl}methyl)-N-methyl-5,6,7,8-tetrahydro-8-quinolinamine], the IC50 was below 100 nM.
In the case of `CCN(Cc1nc2cccc(N3CC[C@@H](N(C)C)C3)n2c1C(N)=O)[C@H]1CCCc2cccnc21` [Example 43, 5-[(3R)-3-(Dimethylamino)-1-pyrrolidinyl]-2-({ethyl[(8S)-5,6,7,8-tetrahydro-8-quinolinyl]amino}methyl)imidazo[1,2-d]pyridine-3-carboxamide], the IC50 was below 100 nM.
The figure for `CC(C)N(Cc1nc2cccc(N3CCN(C)CC3)n2c1C(N)=O)[C@H]1CCCc2cccnc21` [Example 30, 2-([(1-Methylethyl)[(8S)-5,6,7,8-tetrahydro-8-quinolinyl]amino]methyl)-5-(4-methyl-1-piperazinyl)imidazo[1,2-a]pyridine-3-carboxamide] is below 100 nM; for `CCCN(Cc1nc2cccc(N3CC[C@@H](N(C)C)C3)n2c1C(N)=O)[C@H]1CCCc2cccnc21` [Example 47, 5-[(3R)-3-(Dimethylamino)-1-pyrrolidinyl]-2-({propyl[(8S)-5,6,7,8-tetrahydro-8-quinolinyl]amino}methyl)imidazo[1,2-a]pyridine-3-carboxamide] it is below 100 nM; for `CCCN(Cc1nc2cccc(N3CCC(N(C)C)CC3)n2c1C(N)=O)[C@H]1CCCc2cccnc21` [Example 67, 5-[4-(dimethylamino)-1-piperidinyl]-2-({propyl[(8S)-5,6,7,8-tetrahydro-8-quinolinyl]amino}methyl)imidazo[1,2-a]pyridine-3-carboxamide] it is below 100 nM.
On to `CCCN(Cc1nc2cccc(N3CCN(C(C)C)CC3)n2c1Cl)[C@H]1CCCc2cccnc21` [Example 85, (8S)—N-({3-Chloro-5-[4-(1-methylethyl)-1-piperazinyl]imidazo[1,2-a]pyridin-2-yl}methyl)-N-propyl-5,6,7,8-tetrahydro-8-quinolinamine], for which the IC50 is below 100 nM.
Turning to `CN1CCN(c2cccc3nc(CN(C)[C@H]4CCCc5cccnc54)c(Cl)n23)CC1` [Example 72, (8S)—N-{[3-Chloro-5-(4-methyl-1-piperazinyl)imidazo[1,2-a]pyridin-2-yl]methyl}-N-methyl-5,6,7,8-tetrahydro-8-quinolinamine], the IC50 was below 100 nM.
As for `CC(C)N1CCN(c2cccc3nc(CN(C)[C@H]4CCCc5cccnc54)c(Cl)n23)CC1` [Example 80, (8S)—N-({3-Chloro-5-[4-(1-methylethyl)-1-piperazinyl]imidazo[1,2-a]pyridin-2-yl}methyl)-N-methyl-5,6,7,8-tetrahydro-8-quinolinamine], the figure is below 100 nM; as for `CCCN(Cc1cn2c(N3CCN(C)CC3)ccc(F)c2n1)[C@H]1CCCc2cccnc21` [Example 90, (8S)—N-{[8-Fluoro-5-(4-methyl-1-piperazinyl)imidazo[1,2-a]pyridin-2-yl]methyl}-N-propyl-5,6,7,8-tetrahydro-8-quinolinamine], below 100 nM.
